This note sets out measurements from patent US8563503B2, “Antibiotic, its nucleotide sequence, methods of construction and uses thereof” (Protein Design Lab. Ltd., priority 2011, dated 2013).

In data set [1] the test system is Staphylococcus aureus ATCC 29213. Description: MIC against the infecting strain (Table 2). In kind it is cell-based. To be noted: ATCC29213. As for the experimental part:
(§1) (3) Culture Solution • MH Broth Culture Solution: 25 g was added into […] distilled water, heat to dissolve, subpackaged, autoclaved at 116° C. for 20 minutes, and MH Solid Culture Medium, 36 g was added into 1000 ml distilled water, autoclaved at 116° C. for 20 minutes, used for drug sensitive test of Gram-positive and negative aerobic bacteria. • Blood culture solution for Enterococcus faecalis, which was prepared by adding defibration rabbit blood into the MH culture solution by 5-10% and cultured at 37° C. in 5% CO2 for 24 hours. 2. Experimental Methods (1) The Measurement of Minimum Inhibitory Concentration (MIC) • The Minimum Inhibitory Concentration (MIC) of PMC-SA1 was measured by Agar Doubling Dilution Method. The bacterium was inoculated on the surface of agar plate containing different concentration of drugs by multipoint inoculate instrument (Deneley A400). The bacterial content per point was 10^5 CFU/ml. After incubated at 37° C. for 18-24 hours, the result can be observed. The least concentration of drugs in plate culture solution without bacterium growing was Minimum Inhibitory Concentration (MIC) of the drug to the said bacteria. 3. Results

Data set [2] has as its system Staphylococcus aureus MRSA BAA-42. Description: MIC against the infecting strain (Table 2). It counts as cell-based. The conditions noted are these: Staphylococcus aureus. As to the method:
as §1

Data set [3] deals with E. coli 02-1-65. Description: MIC against the infecting strain (Table 2). In kind it is cell-based. The conditions noted are these: Escherichia coli, 02165. As to the method: as §1
The test system of data set [4] is ATCC 25923 penicillin-sensitive Staphylococcus aureus. Description: Bacteria growth curve (A595 nm cloudiness), penicillin-sensitive Staphylococcus aureus. To be noted: drug 100 ng/ml, 37° C., A595 nm per hour. It counts as cell-based. As for the experimental part: The bacterium was United States Reference Culture ATCC 25923 penicillin-sensitive Staphylococcus aureus. 2 microliter of bacteria solution (10^5 CFU/ml) was added into 10 ml culture solution containing 1% tryptone, 1% NaCl, 0.5% yeast extract, 0.5% glucose and 0.1% K2HPO4, totally prepared six groups. The first group as control was added 0.3 M NaCl+50 mM boric acid buffer fluid (i.e. blank preservative fluid for novel antibiotic, wild-type colicin Ia and protein produced by BL-21 engineering bacteria without plasmid, by the same volumes of antibiosis polypeptide liquid in the experimental group, the second group was added penicillin G sodium by 100 ng/ml, the third group was added wild-type colicin Ia by 100 ng/ml, the fourth group was added protein produced by BL-21 engineering bacteria without plasmid by 100 ng/ml, the fifth group was added recombinant protein that C-terminus of colicin Ia is fused other eight peptides by 100 ng/ml, and the sixth group was added the novel antibiotic PMC-SA1 by 100 ng/ml.
The solutions of the six groups were respectively put into 100 ml conical flask, 200 rpm, grew at 37° C. 100 μl was sampled per hour, and added onto 96 hole ELISA Plate and measured bacterium growth cloudiness by spectrophotometer (A595 nm) color comparison. The bacteria-growth curve was drawn up to compare the bacteriostasis efficacy of novel antibiosis.

Data set [5] deals with Enterococcus ATCC 700802. The experiment in a line: MIC against the infecting strain (Table 2). In kind it is cell-based, Enterococcus faecalis. The conditions noted are these: ATCC700802. As for the experimental part:
as §1

A further data set relates to Enterococcus. Description: MIC by Agar Doubling Dilution Method, clinical isolates. In kind it is cell-based, Enterococcus faecalis. The conditions noted are these: Enterococcus. As for the experimental part:
as §1

For data set [6], the system named is Staphylococcus epidermidis (MSSE strain). The data set is described as above. It counts as cell-based. As for the experimental part:
as §1

For the next data set, the system named is E. coli. The data set is described as above. It counts as cell-based. To be noted: Escherichia coli, E. coli clinical strains. As for the experimental part: as §1
For data set [7], the system named is Staphylococcus epidermidis (MRSE). Described as above. It counts as cell-based. To be noted: Staphylococcus epidermidis, MRSE. As to the method: as §1
Data set [8] deals with Staphylococcus aureus (MSSA). The description is as above. In kind it is cell-based. The conditions noted are these: Staphylococcus aureus, MSSA. As for the experimental part:
as §1

The next data set relates to Baumanii. The description is as above. It counts as cell-based. As to the method: as §1
Data set [9] concerns Staphylococcus aureus (MRSA). Described as above. In kind it is cell-based. The conditions noted are these: Staphylococcus aureus, MRSA. As for the experimental part: as §1
Data set [10] concerns Enterococcus ATCC 700802. Description: Protection test in vivo (intravenous injection) of infected mice. The arrangement: species or system Kungming mice. To be noted: Enterococcus, ATCC700802. As for the experimental part: (§2) The drugs used in this embodiment were same with that used in embodiment 4.
(§3) The above drugs were dissolved and diluted by sterilized water, and the injection concentrations of each drug were 10 mg/kg, 5 mg/kg and 2.5 mg/kg.
(§4) After given intraperitoneal injection of fatal dose of above-mentioned bacteria, the mice of each drug experimental group respectively were given once intravenous injection of the drug by 10 mg, 5 mg, 2.5 mg/kg. The results were observed per 24 hours for 7-14 days. The positive result is mice's death.

Data set [11] concerns Staphylococcus aureus ATCC 29213. The description is as above. The arrangement: species or system Kungming mice. To be noted: Staphylococcus aureus, ATCC29213. As for the experimental part:
as §2, §3, §4

The subject of data set [12] is Staphylococcus aureus MRSA BAA-42. The description is as above. The arrangement: species or system Kungming mice. The conditions noted are these: Staphylococcus aureus. As for the experimental part: as §2, §3, §4
The subject of data set [13] is E. coli 02-1-65. Described as above. The arrangement: species or system Kungming mice. To be noted: Escherichia coli, 02165. As to the method: as §2, §3, §4
Data set [14] can be described thus: Immunization of mice, valence of mouse sera by indirect ELISA. In kind it is in vivo. The conditions noted are these: from valence of mouse sera. As to the method: Allosteric peptide of Colicin Ia, i.e. Ia′, PMC-SA1 obtained in embodiment 1, wild-type colicin Ia and the anti-Staphylococcus aureus peptide (ZL01128836.1) which invented by the present inventor were taken respectively to immunize mice. After admixturing with the adjuvant, the above proteins were interaperitonea injected respectively to the mice by 50 μg per mouse for one time of foundational quantity and 50 μg per mouse for one time of additional quantity totally 5 times by two weeks interval. Indirect ELISA detection method was applied to detect the valence of mouse sera (Xiao Yi, et. al., Preparation and preliminary characterization of monoclonal antibodies against Pheromonicin-and-Staphylococcus aureus, Shanxi Medical Journal, 35(1): 6-7, 32 (2006)). The valence of mouse sera which immunized by wild type colicin Ia as well as anti-Staphylococcus aureus polypeptide (ZL01128836.1) was 10^−4 to 10^−5, while the valence of mouse sera which immunized by allosteric peptide of colicin Ia and PMC-SA1 was 10^−2 to 10^−3.

Some results are limits rather than exact numbers.

As for `CC1(C)S[C@@H]2[C@H](NC(=O)Cc3ccccc3)C(=O)N2[C@H]1C(=O)O` [Penicillin, Benzylpenicillin Sodium], the MIC in data set [1] was 16 µg/mL; in data set [2] it was 8 µg/mL; against E. coli 02-1-65 [3], > 128 µg/mL; in the data set with Enterococcus ATCC 700802 [5] it was 4 µg/mL; in the data set with E. coli (read-out: Scope of MIC), > 128 µg/mL; in the data set on Baumanii (read-out: Scope of MIC), > 128 µg/mL. Further, the MIC in [9] (read-out: Scope of MIC) was in the range of 1 to 128 µg/mL. Besides, in data set [4], the “growth of penicillin-sensitive Staphylococcus aureus (bacteria-growth curve)” value is given as “restrained”. In addition, the MIC50 against Enterococcus is 32 µg/mL; in data set [6] (Staphylococcus epidermidis), 4 µg/mL; in the data set on E. coli (read-out: MIC50) it was > 128 µg/mL; in data set [7], > 128 µg/mL; in data set [8], 8 µg/mL; against Baumanii, > 128 µg/mL. Also, in data set [9], the MIC50 amounted to 128 µg/mL. The MIC90 with Enterococcus was 64 µg/mL; in [6] (Staphylococcus epidermidis), 32 µg/mL; with E. coli (read-out: MIC90), > 128 µg/mL; in data set [7] it was > 128 µg/mL; in data set [8], 64 µg/mL; against Baumanii, > 128 µg/mL. The MIC90 in data set [9] was > 128 µg/mL. The “Scope of MIC” value in [6] (MSSE clinical strains) fell in the range of 0.125 to 128 µg/mL. The ED50 in the data set on Enterococcus ATCC 700802 [10] was 4.16 mg/kg; in data set [11], 10.8 mg/kg; in data set [12] it was 14.7 mg/kg; with E. coli 02-1-65 [13] it was > 34.5 mg/kg.

B1: allosteric peptide of colicin Ia: wild-type Colicin Ia with mutations G11A, H22R, A26G, V31L and H40K; SEQ ID NO: 36 (protein)
chain: SDPVRITNPAAESLGYDSDGREIMGVDIYLNPPRVDVFKGTPPAWSSFGNKTIWGGNEWVDDSPTRSDIEKRDKEITAYKNTLSAQQKENENKRTEAGKRLSAAIAAREKDENTLKTLRAGNADAADITRQEFRLLQAELREYGFRTEIAGYDALRLHTESRMLFADADSLRISPREARSLIEQAEKRQKDAQNADKKAADMLAEYERRKGILDTRLSELEKNGGAALAVLDAQQARLLGQQTRNDRAISEARNKLSSVTESLNTARNALTRAEQQLTQQKNTPDGKTIVSPEKFPGRSSTNHSIVVSGDPRFAGTIKITTSAVIDNRANLNYLLSHSGLDYKRNILNDRNPVVTEDVEGDKKIYNAEVAEWDKLRQRLLDARNKITSAESAVNSARNNLSARTNEQKHANDALNALLKEKENIRNQLSGINQKIAEEKRKQDELKATKDAINFTTEFLKSVSEKYGAKAEQLAREMAGQAKGKKIRNVEEALKTYEKYRADINKKINAKDRAAIAAALESVKLSDISSNLNRFSRGLGYAGKFTSLADWITEFGKAVRTENWRPLFVKTETIIAGNAATALVALVFSILTGSALGIIGYGLLMAVTGALIDESLVEKANKFWGI
modifications: allosteric peptide of colicin Ia
As to B1, the “possibility of causing host allergic reaction relative to anti-Staphylococcus aureus polypeptide” value in [14] is “lower one to two order of magnitude”.
